The target of assay [1] is T1, ER protein (Homo sapiens, UniProt P03372).
T1 sequence (P03372 1-595): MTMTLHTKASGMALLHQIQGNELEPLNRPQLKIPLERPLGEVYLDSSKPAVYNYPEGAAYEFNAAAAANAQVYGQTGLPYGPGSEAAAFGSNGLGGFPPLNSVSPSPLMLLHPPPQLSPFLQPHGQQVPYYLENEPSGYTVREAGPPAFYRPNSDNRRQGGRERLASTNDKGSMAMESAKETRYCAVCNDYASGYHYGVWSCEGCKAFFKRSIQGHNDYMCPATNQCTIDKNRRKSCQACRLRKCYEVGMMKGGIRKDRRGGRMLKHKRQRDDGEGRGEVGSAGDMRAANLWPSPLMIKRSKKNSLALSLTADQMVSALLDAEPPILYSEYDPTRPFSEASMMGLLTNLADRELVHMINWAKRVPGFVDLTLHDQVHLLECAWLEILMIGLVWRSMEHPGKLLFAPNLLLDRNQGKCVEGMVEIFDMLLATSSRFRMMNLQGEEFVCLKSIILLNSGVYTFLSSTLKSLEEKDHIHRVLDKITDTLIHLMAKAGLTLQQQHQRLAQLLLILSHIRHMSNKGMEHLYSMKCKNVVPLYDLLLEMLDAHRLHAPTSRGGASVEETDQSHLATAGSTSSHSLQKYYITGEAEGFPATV
In words: Western blotting analysis of ER protein degradation in T47D cell line. To be noted: degradation of ER protein, T47D cells, drug treatment for 16 hours, Western blot gray values vs DMSO control; read-out: DC50 (nM)/T47Dcell line. The class given is cell-based. Further details: western blotting detection of the level of intracellular ER protein; endogenous in cells; host or cells: T47D. An outline of the steps:
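T47D cells seeded at 1.5×10^5 cells/mL, adhered 24 h, then treated with compound; ER protein level read by Western blot band gray value versus DMSO control. DC50 taken as concentration giving half the control gray value, read from bands or from a fitted concentration–gray value curve.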

Assay [2] concerns the target T1, ER protein. In words: Western blotting analysis of ER protein degradation in MCF-7 cell line. The class given is cell-based. Also noted: western blotting detection of the level of intracellular ER protein; endogenous in cells. The conditions noted are these: MCF-7 cells, Western blot gray values vs DMSO control. On the procedure: MCF-7 were cultured in ncubator with 5% CO2 at 37° C. Complete medium was EMEM supplemented with 10% FBS, 100 U/mL Penicillin and Streptomycin, and 0.77 μg/mL recombinant human insulin. […]
DC50 value (the drug concentration required for degrading proteins by 50%, abbreviated as DC50) reads method: comparing the gray values of the Western blotting bands for the drug treatment with the gray values of the Western blotting band for the DMSO control, and reading the drug concentration range corresponding to the gray value of the Western blotting bands for the drug treatment which is equal to half of the gray value of the Western blotting band for the DMSO control.
DC50 value could also be calculated as follows: using software ImageJ to quantify the gray values of the Western blotting bands for the drug treatment, fitting the relationship curve between drug concentrations and gray values, and from the fitted curve, calculating the drug concentration corresponding to half of the gray value of the Western blotting band for the DMSO control.
(A western blot detects proteins with antibodies after separation by electrophoresis.)

In patent US20220016102A1, “ER PROTEIN REGULATORS AND USE THEREOF” (ShanghaiTech University, priority 2018, published 2022) one finds DC50 data, which are given here for 6 compounds.

For `Cc1ncsc1-c1ccc(CNC(=O)[C@@H]2C[C@@H](O)CN2C(=O)[C@@H](NC(=O)CCOCCOCCOCCOCCC(=O)NCCOc2ccc(C(=C(CCCl)c3ccccc3)c3ccc(O)cc3)cc2)C(C)(C)C)cc1` [SIAIS208019, N1-(2-(4-(4-chloro-1-(4-hydroxyphenyl)-2-phenylbut-1-en-1-yl)phenoxy)ethyl)-N16-((S)-1-((2S,4R)-4-hydroxy-2-((4-(4-methylthiazol-5-yl)benzyl)carbamoyl)pyrrolidin-1-yl)-3,3-dimethyl-1-oxobutan-2-yl)-4,7,10,13-tetraoxahexadecanediamide], the DC50 at ER protein [1] is under 10 nM; at ER protein [2] it was under 50 nM.
On to `Cc1ncsc1-c1ccc(CNC(=O)[C@@H]2C[C@@H](O)CN2C(=O)[C@@H](NC(=O)CCCCC(=O)NCCOc2ccc(C(=C(CCCl)c3ccccc3)c3ccc(O)cc3)cc2)C(C)(C)C)cc1` [SIAIS208032, N1-(2-(4-(4-chloro-1-(4-hydroxyphenyl)-2-phenylbut-1-en-1-yl)phenoxy)ethyl)-N6-((S)-1-((2S,4R)-4-hydroxy-2-((4-(4-methylthiazol-5-yl)benzyl)carbamoyl)pyrrolidin-1-yl)-3,3-dimethyl-1-oxobutan-2-yl)adipamide], for which the DC50 at ER protein [1] is under 50 nM; at ER protein [2], under 100 nM.
The corresponding values for `Cc1ncsc1-c1ccc(CNC(=O)[C@@H]2C[C@@H](O)CN2C(=O)[C@@H](NC(=O)COCCOCC(=O)NCCOc2ccc(C(=C(CCCl)c3ccccc3)c3ccc(O)cc3)cc2)C(C)(C)C)cc1` [SIAIS208041, (2S,4R)-1-((S)-2-(tert-butyl)-14-(4-(4-chloro-1-(4-hydroxyphenyl)-2-phenylbut-1-en-1-yl)phenoxy)-4,11-dioxo-6,9-dioxa-3,12-diazatetradecanoyl)-4-hydroxy-N-(4-(4-methylthiazol-5-yl)benzyl)pyrrolidine-2-carboxamide] are under 10 nM and 10 nM.
With `Cc1ncsc1-c1ccc(CNC(=O)[C@@H]2C[C@@H](O)CN2C(=O)[C@@H](NC(=O)CCCCCCCCCC(=O)NCCOc2ccc(C(=C(CCCl)c3ccccc3)c3ccc(O)cc3)cc2)C(C)(C)C)cc1` [SIAIS208037, N1-(2-(4-(4-chloro-1-(4-hydroxyphenyl)-2-phenylbut-1-en-1-yl)phenoxy)ethyl)-N11-((S)-1-((2S,4R)-4-hydroxy-2-((4-(4-methylthiazol-5-yl)benzyl)carbamoyl)pyrrolidin-1-yl)-3,3-dimethyl-1-oxobutan-2-yl)undecanediamide], the DC50 at ER protein [1] and at ER protein [2] was under 10 nM each time.
On to `Cc1ncsc1-c1ccc(CNC(=O)[C@@H]2C[C@@H](O)CN2C(=O)[C@@H](NC(=O)CCCCCCCCCCCCC(=O)NCCOc2ccc(C(=C(CCCl)c3ccccc3)c3ccc(O)cc3)cc2)C(C)(C)C)cc1` [SIAIS208038, N1-(2-(4-(4-chloro-1-(4-hydroxyphenyl)-2-phenylbut-1-en-1-yl)phenoxy)ethyl)-N14-((S)-1-((2S,4R)-4-hydroxy-2-((4-(4-methylthiazol-5-yl)benzyl)carbamoyl)pyrrolidin-1-yl)-3,3-dimethyl-1-oxobutan-2-yl)tetradecanediamide], for which the figures for the DC50 at ER protein [1] and at ER protein [2] were under 50 nM and under 10 nM, respectively.
As to `Cc1ncsc1-c1ccc(CNC(=O)[C@@H]2C[C@@H](O)CN2C(=O)[C@@H](NC(=O)CCC(=O)NCCOc2ccc(C(=C(CCCl)c3ccccc3)c3ccc(O)cc3)cc2)C(C)(C)C)cc1` [SIAIS208020, N1-(2-(4-(4-chloro-1-(4-hydroxyphenyl)-2-phenylbut-1-en-1-yl)phenoxy)ethyl)-N4-((S)-1-((2S,4R)-4-hydroxy-2-((4-(4-methylthiazol-5-yl)benzyl)carbamoyl)pyrrolidin-1-yl)-3,3-dimethyl-1-oxobutan-2-yl)succinamide], the DC50 at ER protein [1] was under 10 nM; on ER protein [2] it was under 50 nM.
